Source: patent US20090270401A1, “USE OF A DIHYDROIMIDAZOPYRAZOINE DERIVATIVE FOR TREATING OR PREVENTING PAIN” (Societe de Conseils de Recherches et D'Applications …, priority 2004, published 2009)

What was measured:
Format in all cases: in vivo
[1] = tested on: carrageenin-induced inflammatory hyperalgesia in a rat's paw; assay: Model of carrageenin-induced inflammatory hyperalgesia (Randall-Selitto test)
Protocol: The activity of compound (I) or its salt according to the invention has been evaluated in vivo on a model of carrageenin-induced inflammatory hyperalgesia in a rat's paw.
Male Sprague Dawley (Charles River) rats weighing approximately 200 g are housed for 5 to 8 days under animal room conditions and fasted on grids for 18 hours before and during the experiment. 4 groups are constituted by at least 6 animals. The products are administered by intravenous route (i.v., 1 ml/kg) 2 hours 30 minutes after the injection of carrageenin. Carrageenin at a concentration of 2 mg/0.1 ml was injected by sub-plantar route in the right rear paw of the rats (0.1 ml was injected per animal). The pain threshold (or nociceptive threshold) was evaluated by measuring the withdrawal of the rat's paw caused by a mechanical stimulus of increasing pressure (initial pressure 210 g/mm^2) applied using an analgesy meter (Randall-Selitto test). The measurements were taken just before the injection of carrageenin (t=−2 hours 30 minutes) and then at time 0.5 hours, 2 hours 30 minutes and 4 hours after injection of the products to be tested, which was carried out at t=0.
(§1) This effectiveness is statistically determined by a variance analysis test (one route) and/or a Dunnett's test (two routes).
The effective dose (ED50) was determined. By ED50, is meant the dose which reduces by half the pain induced in the model tested.

[2] = tested on: neuropathy induced by chronic constriction injury on the rat's paw; assay: Model of neuropathy induced by sciatic nerve lesion (chronic constriction injury), Randall-Selitto test
Protocol: The activity of compound (I) or its salt according to the invention was evaluated in vivo on a model of neuropathy induced by chronic constriction injury on the rat's paw.
Male Sprague Dawley (Charles River) rats weighing approximately 200 g are housed for 6 days under animal room conditions. Before the start of the experiment (day zero) the pain threshold (or nociceptive threshold) was evaluated by measuring the withdrawal of the rat's paw caused by a mechanical stimulus (initial pressure 210 g/mm^2) applied using an analgesy meter (Randall-Selitto test). This threshold is the pain base threshold. Then, also on day zero, the rats are rendered neuropathic by chronic constriction injury according to the Bennett and Xies (1988) method: 4 ligatures spaced at approximately 2 mm (monocryl suture; 5.0) are carried out on the sciatic nerve of the rat's right paw, above the trifurcation. This operation is carried out under general anaesthetic using isoflurane. […] On day 14 after the operation, the pain threshold was re-evaluated. […] The readings are taken at the following times: 0.5 hours 2.5 hours and 4 hours after injection of compound (I). […]
as §1
The effective dose (ED50) was determined. […]

[3] = tested on: neuropathy induced by administration of an anti-cancer agent (paclitaxel (taxol)), on a rat's paw; assay: Model of neuropathy induced by administration of an anti-cancer agent (paclitaxel), Randall-Selitto test; conditions: significantly increased
Protocol: The activity of compound (I) or its salt according to the invention was evaluated in vivo on a model of neuropathy induced by administration of an anti-cancer agent (paclitaxel (taxol)), on a rat's paw.
Male Sprague Dawley (Charles River) rats weighing approximately 200 g are housed for 6 days under animal room conditions. 3 groups are constituted by at least 10 animals.
The neuropathy is induced by intra-peritoneal injections (i.p.) of 2 mg/kg of paclitaxel (extract of Taxus Yannanensis) on days D0, D2, D4 and D7.
Before the first injection, the rats are numbered and weighed and nociception is evaluated after a mechanical stimulus of increasing pressure: induction of an initial pressure (210 g/m^2) on the rats' two rear paws carried out using an analgesy meter according to the Randall and Selitto method. These measurements allow the base values to be defined before development of the neuropathy (D0). […]
On the day of the experiment, the rats are weighed, nociception is measured and the animals which have not developed the neuropathy on this day (reduction of nociception in comparison with the readings on D0) are excluded from the study. The product being tested is administered and nociception is measured at different times after its administration.

[4] = Rattus norvegicus, iv, at time 0.5 hours, read-out: ED50 (dose which reduces by half the pain induced)

N[C@@H](CSSC[C@H](N)C(=O)N1CCn2cc(-c3ccccc3)nc2[C@@H]1CC1CCCCC1)C(=O)N1CCn2cc(-c3ccccc3)nc2[C@@H]1CC1CCCCC1 [Compound (I), (1R)-1-[({(2R)-2-amino-3-[(8S)-8-(cyclohexylmethyl)-2-phenyl-5,6-dihydroimidazo[1,2-a]pyrazin-7(8H)-yl]-3-oxopropyl}dithio)methyl]-2-[(8S)-8-(cyclohexylmethyl)-2-phenyl-5,6-dihydroimidazo[1,2-a]pyrazin-7(8H)-yl]-2-oxoethylamine]
pain threshold following a mechanical stimulus applied to the rats' paws ([1]; 1 mg/kg i.v., time 0.5 hours, control 240 g/mm^2, significantly increased): approximately 400 g/mm^2 | ED50 [1, 4]: 0.42 mg/kg | pain threshold following a mechanical stimulus applied to the rats' paws ([2]; 3 mg/kg i.v., time 0.5 hours, day 14 after operation, control 200 g/mm^2, significantly increased): approximately 320 g/mm^2 | ED50 [2, 4]: 2.5 mg/kg | pain threshold following a mechanical stimulus applied on the rats' paws ([3]; 3 mg/kg i.v., time 0.5 hours, paclitaxel alone 250 g/mm^2): approximately 370 g/mm^2 | pain threshold following a mechanical stimulus applied to the rats' paws ([3]; 100 mg/kg p.o., time 1 hour, paclitaxel alone 240 g/mm^2): approximately 400 g/mm^2
